From patent publication US20040037775A1, “Leukocyte internalized peptide-drug conjugates” (priority 2000, published 2004)
Read-outs that look alike come from different tables or passages of the source. Starred links: 1 amine or outer side, 2 acyl side, 3 side chain; linkers in the order of their positions; H or OH if unused. Positions of bridges follow the written chain, without caps; N, C: chain ends. Non-standard residues stand in square brackets, D forms with d. Residues, ends and D or L forms follow the SMILES beside them. *: point of attachment. DAMPA = CN(Cc1cnc2nc(N)nc(N)c2n1)c1ccc(C(=O)*)cc1; γGlu = O=C(O)[C@H](CCC(=O)[*:2])N[*:1]; Pen = CC(C)(S)[C@H](N)C(=O)O

How the values were obtained:
[1] = test system: dihydrofolate reductase enzyme (DHFR); test: DHFR inhibition assay (spectrophotometric NADPH loss, Dixon plots); format: biochemical; conditions: for Ymax: from Dixon plots
Protocol: Into a 2.0 mL cuvette, a 1.0 mL solution of 0.11 mM β-NADPH and 33 μL of 2.3 mM DHFA were aliquoted and allowed to equilibrate. […] To begin the assay, 33 μL of DHFR (0.12-0.25 unit/mL with 0.1% BSA) was added to the reaction mixture. The absorbance of the reaction mixture was then recorded continuously for 5 min at 340 nm and the enzyme activity was determined by the rate of NADPH loss. Enzyme activity was determined for three different fixed concentrations of substrate (0.19, 1.9 and 10.0 mM DHFA).

Molt-3 T-cells = test: cells; format: cell-based, human
Protocol: (§1) The cytotoxicity of MTX-peptide conjugates was evaluated in different cell lines, lincluding Molt-3 and L1210 T-cells, and KB epithelial cells. […] After 72 h of growth, the relative numbers of viable cells were determined according to the manufacture's protocols for measuring cytotoxicity using a Dojindo Cytotoxicity Assay Cell counting Kit-8 (CCK-8). To measure the cell viability, 10 μL of CCK-8 was added to each well and the plate was incubated for 4 h. After incubation, the absorbance at 450 nm was measured using a UV plate reader. Cell growth in the presence of different drug concentrations was calculated relative to the value obtained in the absence of the drug. […] Serial dilutions of compounds were prepared in un-supplemented medium, and 110 μL of drug solution was aliquoted in duplicate into 900 μL cell suspensions. Control flasks were treated with 110 μL of un-supplemented medium. Cells were incubated under standard conditions for 48 h, sufficient to allow control cells to divide approximately four times. Growth inhibition was determined by counting the cells on a Z2 model Coulter Counter (Coulter Electronics Ltd, Luton, Beds, UK). The IC50 values were calculated using Graphpad Prism software (Graphpad Software, San Diego, Calif.). KB MTT Assay: KB cells were seeded in Falcons® 96 well plates (Becton-Dickinson Labware Europe, France) at a density of 1,500 cells/well in a volume of 0.18 mL culture medium and incubated under standard culture conditions for 24 h after seeding to allow entry into the exponential phase of cell growth. […] In each assay condition, control cells were treated with 20 μL of un-supplemented medium instead of drug. Cells were incubated for 96 h to allow control cells to divide approximately four times before cell viability was determined by MTT assay.

[2] = test system: L1210 mouse leukemia cells; test: cells; format: cell-based
Protocol: as §1

KB epithelial cells = test: KB MTT assay (96 h); format: cell-based, human
Protocol: Human KB epithelial l cells: The human KB epithelial cell line was a gift from Dr Gerrit Jansen (University Free Hospital, Amsterdam, Netherlands) and was developed to overexpress the membrane folate binding protein (mFBP). Cells were cultured in RPMI 1640 medium without folic acid and supplemented with 10% heat inactivated dialyzed FCS (50 mL volume), 0.2 mL of 50 μg/mL gentamicin, 1 mL of 50 μg/mL amphotericin B, and 5 mL of 200 mM L-glutamine. The folate source, 20 nM (R,S)-LV, was added to supply cells with adequate growth conditions.
The cytotoxicity of MTX-peptide conjugates was evaluated in different cell lines, lincluding Molt-3 and L1210 T-cells, and KB epithelial cells. […] After 72 h of growth, the relative numbers of viable cells were determined according to the manufacture's protocols for measuring cytotoxicity using a Dojindo Cytotoxicity Assay Cell counting Kit-8 (CCK-8). To measure the cell viability, 10 μL of CCK-8 was added to each well and the plate was incubated for 4 h. After incubation, the absorbance at 450 nm was measured using a UV plate reader. Cell growth in the presence of different drug concentrations was calculated relative to the value obtained in the absence of the drug. […] Growth inhibition was determined by counting the cells on a Z2 model Coulter Counter (Coulter Electronics Ltd, Luton, Beds, UK). The IC50 values were calculated using Graphpad Prism software (Graphpad Software, San Diego, Calif.). […] Cells were incubated for 96 h to allow control cells to divide approximately four times before cell viability was determined by MTT assay.
The number of viable cells after a 96-h incubation was determined by assessing their ability to reduce MTT ([…]). […] The absorbance of the solution in each well was measured at 540 nm on a MCC/340 model Titertak Multiscan® plate reader (Labsystems/Flow Laboratories, Oxfordshire, UK). The results were analyzed using Ascent Research software v.2.1 (Labsystems, UK).

L1210-1565 cells = test: cell cycle analysis in L1210-1565 cells (PI staining, flow cytometry); format: cell-based, mouse; conditions: 1 μM
Protocol: The cell pellets were resuspended and fixed in 2.5 mL of ice-cold 70% ethanol. These pellets were stored at 4° C. before analysis using flow cytometry.
PI staining of fixed cell pellets for cell cycle analysis: One day prior to analysis, cells were centrifuged at 450×g (2500 rpm) for 5 min at room temperature and the pellets re-suspended in 0.8 mL PBS followed by addition of 0.1 mL each of 1 mg/mL ribonuclease A (RNase A; Sigma) and 0.4 mg/mL PI (Sigma). RNA digestion by RNase A is required to avoid the intercalation of PI into the double-stranded regions of this nucleic acid, which interfers with the measurement of DNA. After a 30 min incubation at 37° C., samples were wrapped in aluminum foil and stored at 4° C. overnight. Cell cycle analysis was performed using a Coulter EPICS Elite ESP (Beckman Coulter, Buckinghamshire, UK) equipped with an argon-ion laser tuned to 488 nm and red fluorescence collected at 630 nm. DNA histograms were produced and analyzed using the Winmidi software package (v.2.8, written by J.Trotter, University of Cardiff, UK).

IL-6 production = IL-6 production in TNF-α stimulated HCAEC monolayers; format: cell-based; conditions: 0.001-100 μM, 24 h
Protocol: The cell monolayers were cultured in vitro with the test compounds (0.001 to 100 μM) in the presence of TNF-α for 24 h. Results are expressed as the percentage of cytokine relative to the positive control or non-treated monolayers (the baseline 100% cytokine production. The control levels (mean±SE) were as follows: IL-6: 3.4±0.17 ng/mL, IL-8: 199.5±9.13 ng/mL.
It is well known that some anti-inflammatory agents can modulate the secretion of inflammatory cytokines. […] MTX-peptide(s) only begins to effectively reduce the IL-8 production at ≧0.1 μM. At ≦1 μM, neither cLAB.L nor cLBE.L affected the IL-8 production (FIG. 8B).

[3] = test system: collagen induced rheumatoid arthritis (CIA); test: collagen induced rheumatoid arthritis (CIA) animal model; format: in vivo, mice; conditions: for mice showing signs of joint eburnation: histopathologic examination; for Total joint damage (TJD): sum of histopathology scores (0 to 3) for each limb; for arthritis index score for the limb: i.v. once daily after day 35
Protocol: […] received intravenous injections of saline while another treatment group received MTX injections (molar equivalent dosage to conjugate) for five days. Clinical arthritis symptoms were evaluated weekly for up to sixteen weeks. Arthritis development was evaluated by several parameters, including the percent of animals acquiring arthritis, arthritis index (AI) score of limbs, changes in paw-volumes and histologic score for the joint.
Mice injected with collagen adjuvant developed pronounced inflammation of the joints, as evidenced by swelling and erythema. […] Total joint damage (TJD) was calculated as the sum the scores for each limb assigned by the pathologist on a scale of 0 to 3 (where 0 is no change and 3 is gross histological change).

LFA-1 = biological target: T1, LFA-1 (Homo sapiens, UniProt P20701); test: binding to LFA-1 on Molt-3 T-cells (reduction of FITC anti-CD11a antibody binding, flow cytometry); conditions: 1, 10 or 100 μM, 45 min, 4° C.
T1 construct: endogenous in cells
T1 sequence (P20701 26-1170): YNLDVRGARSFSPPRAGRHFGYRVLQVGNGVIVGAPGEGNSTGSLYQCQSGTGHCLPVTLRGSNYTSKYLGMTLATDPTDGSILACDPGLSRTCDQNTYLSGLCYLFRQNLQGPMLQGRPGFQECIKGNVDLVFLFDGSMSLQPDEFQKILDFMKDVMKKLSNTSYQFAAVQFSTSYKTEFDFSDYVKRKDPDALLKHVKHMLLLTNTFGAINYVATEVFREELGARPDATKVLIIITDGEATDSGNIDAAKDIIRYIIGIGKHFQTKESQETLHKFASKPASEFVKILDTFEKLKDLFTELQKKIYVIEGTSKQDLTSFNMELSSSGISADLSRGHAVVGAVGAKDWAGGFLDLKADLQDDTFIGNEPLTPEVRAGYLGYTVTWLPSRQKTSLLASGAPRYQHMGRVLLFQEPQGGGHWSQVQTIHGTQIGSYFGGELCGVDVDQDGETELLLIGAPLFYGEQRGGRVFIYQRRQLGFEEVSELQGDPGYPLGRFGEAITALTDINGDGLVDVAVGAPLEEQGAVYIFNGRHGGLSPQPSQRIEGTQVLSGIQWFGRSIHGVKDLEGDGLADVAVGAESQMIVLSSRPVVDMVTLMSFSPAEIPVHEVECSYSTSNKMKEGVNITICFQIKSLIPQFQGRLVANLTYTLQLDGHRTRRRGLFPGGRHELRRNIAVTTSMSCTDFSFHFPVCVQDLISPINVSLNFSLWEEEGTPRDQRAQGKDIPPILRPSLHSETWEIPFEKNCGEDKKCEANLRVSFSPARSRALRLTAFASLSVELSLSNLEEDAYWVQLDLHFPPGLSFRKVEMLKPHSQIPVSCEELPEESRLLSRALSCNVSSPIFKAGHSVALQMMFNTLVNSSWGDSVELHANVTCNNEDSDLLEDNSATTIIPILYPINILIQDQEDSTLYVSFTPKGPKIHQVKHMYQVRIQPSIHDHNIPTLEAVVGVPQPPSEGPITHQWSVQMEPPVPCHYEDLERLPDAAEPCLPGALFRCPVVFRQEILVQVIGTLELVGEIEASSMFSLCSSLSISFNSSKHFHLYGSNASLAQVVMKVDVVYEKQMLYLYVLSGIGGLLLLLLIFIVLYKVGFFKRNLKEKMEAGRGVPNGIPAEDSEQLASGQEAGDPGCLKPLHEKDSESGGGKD
T1 sequence (P05107 23-769 partner): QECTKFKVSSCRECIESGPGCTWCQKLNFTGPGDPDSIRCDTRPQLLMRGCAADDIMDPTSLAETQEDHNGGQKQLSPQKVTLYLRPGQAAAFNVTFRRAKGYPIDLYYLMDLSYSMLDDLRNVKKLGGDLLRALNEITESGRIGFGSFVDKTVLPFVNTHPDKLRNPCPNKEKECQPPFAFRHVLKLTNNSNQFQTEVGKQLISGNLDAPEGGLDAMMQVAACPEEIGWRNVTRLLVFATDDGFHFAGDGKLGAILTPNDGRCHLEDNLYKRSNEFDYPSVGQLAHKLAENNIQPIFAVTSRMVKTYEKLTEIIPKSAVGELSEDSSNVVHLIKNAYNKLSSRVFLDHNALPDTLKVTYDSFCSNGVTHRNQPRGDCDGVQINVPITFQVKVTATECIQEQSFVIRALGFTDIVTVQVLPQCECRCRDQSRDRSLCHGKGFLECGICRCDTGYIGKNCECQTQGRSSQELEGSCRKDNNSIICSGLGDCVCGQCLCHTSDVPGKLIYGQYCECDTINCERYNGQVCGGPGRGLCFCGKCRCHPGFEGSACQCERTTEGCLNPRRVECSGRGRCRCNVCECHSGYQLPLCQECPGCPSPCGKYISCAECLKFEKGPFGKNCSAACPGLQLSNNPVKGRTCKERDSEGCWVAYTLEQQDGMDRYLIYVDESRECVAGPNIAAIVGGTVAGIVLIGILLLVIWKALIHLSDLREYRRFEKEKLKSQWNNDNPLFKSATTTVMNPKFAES
Protocol: The binding of MTX-peptide conjugates to LFA-1 in response to LFA-1 activation was evaluated. As necessary, cells were activated with 10% v/v phorbol 12-myristate-13-acetate (PMA) containing medium to a final concentration of 2 μM PMA and incubated for 16 h. […] T-cells were centrifuged for 3 min at 1800 rpm, the supernatant was decanted by flicking off excess liquid, and the cells were re-suspended in 500 μL of PBS. The cells were then re-centrifuged, supernatant was removed, and cells were re-suspended again in 150 μL of PBS/BSA 1%. Next, 50 μL of an FITC-labeled anti-CD11a antibody (clone 38, 10 μg/L) was added and incubated for 45 min at 4° C. followed by washing. After the 45 min of incubation with FITC-labeled antibody, cell samples were transferred to Eppendorf tubes and centrifuged at 3000 g for 3 min. The supernatant was decanted, and the pellet was washed twice with 10 mM HEPES/PBS. The cells were then fixed with ice-cold 2% w/v paraformaldehyde/PBS for 20 min. Samples were analyzed using a Becton-Dickinson FACScan flow cytometer with 3.2.1 fl software for data analysis and acquisition.

Thymidine synthase (TS) = biological target: T2, Thymidine synthase (TS) (Mus musculus, UniProt P07607); format: cell-based
T2 construct: endogenous in cells; host or cells: L1210-1565 mouse leukemia cells
T2 sequence (P07607 whole entry): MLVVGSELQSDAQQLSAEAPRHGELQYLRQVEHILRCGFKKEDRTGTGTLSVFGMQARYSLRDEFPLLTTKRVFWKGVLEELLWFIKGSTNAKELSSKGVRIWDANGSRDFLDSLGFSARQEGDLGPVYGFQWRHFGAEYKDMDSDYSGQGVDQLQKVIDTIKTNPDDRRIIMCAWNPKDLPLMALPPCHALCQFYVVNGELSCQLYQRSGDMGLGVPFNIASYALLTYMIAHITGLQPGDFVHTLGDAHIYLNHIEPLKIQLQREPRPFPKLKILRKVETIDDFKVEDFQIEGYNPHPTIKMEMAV
Protocol: An equivalent amount of unsupplemented medium was added to control flasks. On the day of each experiment, a fresh solution of unlabelled deoxyuridine (dUrd) was prepared in deionized H2O (dH2O) and was added to a stock solution of [5-^3H]-dUrd (22 Ci/mmole) to give a concentration of 300 μM and a specific activity of 3.3 Ci/mmole (˜7260 dpm/pmole).
To begin the assay, the 300 μM [5-^3H]-dUrd stock solution was diluted ten fold in deionized H2O and 50 μL of this solution was added to each culture flask to give a final concentration of 0.03 μM. The rate of ^3H2O formation was measured over a 1 h period (20, 40 and 60 min) by removing a 3×0.4 mL aliquot of the cells in culture medium and mixing it with 0.4 mL of ice-cold 1.0 M perchloric acid (PCA; Sigma) in microfuge tubes. […] For each time point, radioactivity was determined by counting each vial on the tritium channel of a Tri-Carb 2000CA Model Liquid Scintillation Analyzer (Canberra Packard, Pangbourne, Berkshire, UK). Background radioactivity was assessed by cooling a flask of untreated cells on ice before the start of each experiment and adding 50 mL of the [5-^3H]-dUrd solution. Aliquots of 3×0.4 mL aliquots of cells in culture medium were added to 1.0 M PCA-containing microfuge tubes and the rate of ^3H2O release was analyzed as described above. […]

Compound	Ymax [1]	IC50 (Molt-3 T-cells; Homo sapiens, MOLT-3, 72 h, read-out: IC50 Molt-3 T-cells)	IC50 ([2]; Mus musculus, L1210, 48 h, read-out: IC50 L1210 mouse leukemia cells)	IC50 (KB epithelial cells; Homo sapiens, Epithelial cell)	time of treatment after which arrest of cells in S phase was seen (L1210-1565 cells)	block of IL-6 production (IL-6 production)	mice showing signs of joint eburnation [3]	Total joint damage (TJD) [3]	Km relative to that of MTX [1]	IC50 (Molt-3 T-cells; 72 h)	IC50 ([2]; 48 h)	IC50 (KB epithelial cells)	binding to the LFA-1 receptor (LFA-1)	ability to inhibit TS after wash-out (Thymidine synthase (TS))	inhibition of 3H2O production by TS, continuous exposure (Thymidine synthase (TS); 3 μM, 4 h incubation)	arthritis index score for the limb ([3]; week 8)	arthritis index score for the limb ([3]; week 12)
CN(Cc1cnc2nc(N)nc(N)c2n1)c1ccc(C(=O)N[C@@H](CCC(=O)O)C(=O)O)cc1 [MTX, methotrexate, reference compound]	4.30 ± 0.42 × 10^−4	0.061 ± 0.02 µM	0.014 ± 0.004 µM	0.027 µM	24 h	partly block the production of IL-6	44%	7.4±2.5	–	–	–	–	–	–	–	–	–
CC(C)C[C@@H]1NC(=O)[C@H](C(C)C)NC(=O)[C@H](CO)NC(=O)CNC(=O)CNC(=O)[C@H](CCCNC(=N)N)NC(=O)[C@@H]2CCCN2C(=O)[C@@H](NC(=O)CC[C@H](NC(=O)c2ccc(N(C)Cc3cnc4nc(N)nc(N)c4n3)cc2)C(=O)O)C(C)(C)SSC[C@@H](C(=O)O)NC(=O)CNC(=O)[C@H]([C@@H](C)O)NC(=O)[C@H](C(C)C)NC1=O [MTX-cIBR] ({DAMPA-γGlu}-[Pen]PRGGSVLVTGC-OH; disulfide 1-12)	4.10 ± 0.18 × 10^−4	–	–	–	36 h	–	10%	4.4±2.1	~15 fold	2.75 ± 0.8 µM	5.5 ± 2 µM	> 10 µM	specific to the LFA-1 receptor	retained more activity than the linear conjugate	inhibited to a similar degree	two	zero
